Columns and labels:
[1] = Hairless mouse skin permeation test; assay type: in vitro ADME; parameters: unit not given here; settings: hairless mouse (HR-1) skin, horizontal diffusion cell, 37° C., donor 3.84 mmol/L in IPM, N=3
Description: (§1) The compounds described in the Examples were dissolved or suspended in isopropyl myristate (IPM) at a concentration of 3.84 mmol/L and the resultant was used.
The frozen skin of a hairless mouse (HR-1 strain, male, 7 weeks old, Japan SLC, Inc.) was thawed at room temperature and, if there was excess subcutaneous fat, the fat was excised with scissors. The horizontal diffusion cell was kept at a constant temperature by flowing water from a thermostatic circulation tank (37° C.) into the external jacket of the cell. The hairless mouse skin was punched out to ϕ24 mm and mounted tightly in the horizontal diffusion cell, 0.9 mL of a receiver solution (McIlvaine buffer containing 40% polyethylene glycol 400) was added to the dermal side (receiver side), and 0.9 mL of a donor solution (the solution or suspension of the compound described in the Example in IPM at a concentration of 3.84 mmol/L) was added to the stratum corneum side (donor side). […]
The compounds in liquids collected in the skin permeation test were quantified. […]
Skin permeation rate (flux, mmol/cm2/hr) and Lag time (hr) were calculated from the slope and X-axis intercept, respectively, of the regression line at steady state from the profile, and used as indicators of skin permeation.

[2] = tested on: mice (C57BL/6JJmsSlc); assay: Analgesic score by Tail Flick test in mice; assay type: in vivo; settings: Mus musculus, sc, subcutaneous administration in Captisol, dose with an analgesic score of 50%
Description: A Tail Flick analgesic effect metering device (Ugo Basile) and adult mice (C57BL/6JJmsSlc, Japan SLC, Inc.) were used for evaluation. In the Tail Flick test, thermal stimulation was applied to the tail of each animal, and the latency (in seconds) of escape reflection moving the tail was measured. The maximum heat application time was set to 10 seconds in order to prevent burns.
The compounds described in the Examples were dissolved or suspended in Captisol to prepare test samples. Then, test samples at appropriately selected concentrations were administered subcutaneously to the animals (10 mL/kg), and the latency of escape reflection was measured. The latency of escape reflection before test sample administration was set as [pre-dose measurement], and the analgesic score (%) was calculated as [([measurement]−[pre-dose measurement])/(10−[pre-dose measurement])]×100.
The ED50 was determined by calculating a dose with an analgesic score of 50%.

[3] = Dissolution state in isopropyl myristate (IPM); assay type: physicochemical; settings: concentration of 3.84 mmol/L
Description: as §1

Structure (SMILES) | Flux (skin permeation rate) [1] | ED50 [2] [mg/kg] | Dissolution state in IPM [3]
CN(C)C[C@@H]1COCC[C@H]1c1cccc(O)c1 (racemic) [Example 1, 3-[(3R*,4R*)-3-(Dimethylaminomethyl)tetrahydropyran-4-yl]phenol] | 35.77 | 1.6 | 
CN(C)C[C@@H]1COCC[C@H]1c1cccc(O)c1 (relative stereo) [Example 1, 3-[(3R*,4R*)-3-(Dimethylaminomethyl)tetrahydropyran-4-yl]phenol] |  |  | Dissolved
CN(C)C[C@@H]1CCCC[C@H]1c1cccc(O)c1 [Faxeladol] | 17.14 | 2.7 | Suspended

— US11440896B2, “Aminoalkyl compound” (Daiichi Sankyo Company, Limited, priority 2018, dated 2022)
